Test results taken from the supplement of paper PMC11451515.

Tested on: SEM cells
Experiment: cell viability relative to DMSO control; higher = less cytotoxic
Settings: 48 h
Procedure, shortened: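 NOMO1 or SEM cells were plated at 500 cells/well and P12-Ichikawa cells at 1000 cells/well in 1536-well plates (5 μl), after each leukemia line had been adapted for at least four passages in each medium. Pin dosing delivered library compounds in DMSO at 11 threefold concentrations, 47 μM to 0.79 nM. CellTiter-Glo One luminescence was read after 48 h at 37°C. Viability is reported as a per-plate percentage of DMSO wells, with cell-free wells as background.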

[1] = HPLM + 10% dialyzed FBS, 0.000781 µM
[2] = HPLM + 10% dialyzed FBS, 0.00234 µM
[3] = HPLM + 10% dialyzed FBS, 0.00702 µM
[4] = HPLM + 10% dialyzed FBS, 0.0211 µM
[5] = HPLM + 10% dialyzed FBS, 0.0632 µM
[6] = HPLM + 10% dialyzed FBS, 0.19 µM
[7] = HPLM + 10% dialyzed FBS, 0.569 µM
[8] = HPLM + 10% dialyzed FBS, 1.71 µM
[9] = HPLM + 10% dialyzed FBS, 5.12 µM
[10] = HPLM + 10% dialyzed FBS, 15.4 µM
[11] = HPLM + 10% dialyzed FBS, 46.1 µM
[12] = RPMI 5 mM glucose + 10% FBS, 0.000781 µM
[13] = RPMI 5 mM glucose + 10% FBS, 0.00234 µM
[14] = RPMI 5 mM glucose + 10% FBS, 0.00702 µM
[15] = RPMI 5 mM glucose + 10% FBS, 0.0211 µM
[16] = RPMI 5 mM glucose + 10% FBS, 0.0632 µM
[17] = RPMI 5 mM glucose + 10% FBS, 0.19 µM
[18] = RPMI 5 mM glucose + 10% FBS, 0.569 µM
[19] = RPMI 5 mM glucose + 10% FBS, 1.71 µM
[20] = RPMI 5 mM glucose + 10% FBS, 5.12 µM
[21] = RPMI 5 mM glucose + 10% FBS, 15.4 µM
[22] = RPMI 5 mM glucose + 10% FBS, 46.1 µM
[23] = RPMI 5 mM glucose + 10% dialyzed FBS, 0.000781 µM
[24] = RPMI 5 mM glucose + 10% dialyzed FBS, 0.00234 µM
[25] = RPMI 5 mM glucose + 10% dialyzed FBS, 0.00702 µM
[26] = RPMI 5 mM glucose + 10% dialyzed FBS, 0.0211 µM
[27] = RPMI 5 mM glucose + 10% dialyzed FBS, 0.0632 µM
[28] = RPMI 5 mM glucose + 10% dialyzed FBS, 0.19 µM
[29] = RPMI 5 mM glucose + 10% dialyzed FBS, 0.569 µM
[30] = RPMI 5 mM glucose + 10% dialyzed FBS, 1.71 µM
[31] = RPMI 5 mM glucose + 10% dialyzed FBS, 5.12 µM
[32] = RPMI 5 mM glucose + 10% dialyzed FBS, 15.4 µM
[33] = RPMI 5 mM glucose + 10% dialyzed FBS, 46.1 µM

CC1=C(/C=C/C(C)=C/C=C/C(C)=C\C(=O)O)C(C)(C)CCC1
cell viability [1]: 82.8% | cell viability [2]: 84.8% | cell viability [3]: 67.9% | cell viability [4]: 103% | cell viability [5]: 98.1% | cell viability [6]: 96.7% | cell viability [7]: 101% | cell viability [8]: 91.5% | cell viability [9]: 44.3% | cell viability [10]: 80.1% | cell viability [11]: 78.5% | cell viability [12]: 85% | cell viability [13]: 93.2% | cell viability [14]: 77.5% | cell viability [15]: 112% | cell viability [16]: 99.5% | cell viability [17]: 107% | cell viability [18]: 108% | cell viability [19]: 107% | cell viability [20]: 46.1% | cell viability [21]: 98.2% | cell viability [22]: 106% | cell viability [23]: 68.1% | cell viability [24]: 78.3% | cell viability [25]: 64.2% | cell viability [26]: 93.2% | cell viability [27]: 95.3% | cell viability [28]: 107% | cell viability [29]: 83.4% | cell viability [30]: 75.8% | cell viability [31]: 41.6% | cell viability [32]: 77.8% | cell viability [33]: 85.8%

O=C/1NC(=O)C(=C1C2=CN=C3C=CC=C[N]23)/C4=C[N]5CCN(CC6=C5C4=CC=C6)C(=O)N7CCOCC7
cell viability [1]: 111% | cell viability [2]: 104% | cell viability [3]: 62.9% | cell viability [4]: 14.5% | cell viability [5]: 14.7% | cell viability [6]: 14.1% | cell viability [7]: 13.7% | cell viability [8]: 11.3% | cell viability [9]: 10.6% | cell viability [10]: 9.94% | cell viability [11]: 10.3% | cell viability [12]: 96.7% | cell viability [13]: 106% | cell viability [14]: 65.2% | cell viability [15]: 17.9% | cell viability [16]: 14.7% | cell viability [17]: 16.1% | cell viability [18]: 15% | cell viability [19]: 12.4% | cell viability [20]: 13.8% | cell viability [21]: 13.1% | cell viability [22]: 12.8% | cell viability [23]: 101% | cell viability [24]: 102% | cell viability [25]: 63.8% | cell viability [26]: 22.2% | cell viability [27]: 17.1% | cell viability [28]: 13.1% | cell viability [29]: 16.3% | cell viability [30]: 14% | cell viability [31]: 14.6% | cell viability [32]: 11.1% | cell viability [33]: 10.6%

CC1(CN2CCC(n3c(=O)[nH]c4ccccc43)CC2)OCc2ccccc2-n2cccc21 (configuration not stated)
cell viability [1]: 102% | cell viability [2]: 109% | cell viability [3]: 111% | cell viability [4]: 100% | cell viability [5]: 103% | cell viability [6]: 100% | cell viability [7]: 107% | cell viability [8]: 105% | cell viability [9]: 106% | cell viability [10]: 68.1% | cell viability [11]: 76.9% | cell viability [12]: 88.6% | cell viability [13]: 90.5% | cell viability [14]: 89% | cell viability [15]: 111% | cell viability [16]: 106% | cell viability [17]: 95% | cell viability [18]: 103% | cell viability [19]: 100% | cell viability [20]: 94.8% | cell viability [21]: 79.3% | cell viability [22]: 66.8% | cell viability [23]: 106% | cell viability [24]: 81.4% | cell viability [25]: 97.6% | cell viability [26]: 105% | cell viability [27]: 113% | cell viability [28]: 94% | cell viability [29]: 121% | cell viability [30]: 99.2% | cell viability [31]: 105% | cell viability [32]: 79.6% | cell viability [33]: 96.9%

CC[N+](CC)(CC)CCOc1cccc(OCC[N+](CC)(CC)CC)c1OCC[N+](CC)(CC)CC
cell viability [12]: 134% | cell viability [13]: 118% | cell viability [14]: 124% | cell viability [15]: 110% | cell viability [16]: 123% | cell viability [17]: 131% | cell viability [18]: 116% | cell viability [19]: 119% | cell viability [20]: 126% | cell viability [21]: 123% | cell viability [22]: 111% | cell viability [23]: 117% | cell viability [24]: 137% | cell viability [25]: 121% | cell viability [26]: 112% | cell viability [27]: 144% | cell viability [28]: 144% | cell viability [29]: 122% | cell viability [30]: 115% | cell viability [31]: 128% | cell viability [32]: 122% | cell viability [33]: 128%

CCOC(=O)[C@@]1(CCCCCCOc2ccc(Cl)cc2)CO1
cell viability [1]: 95.4% | cell viability [2]: 103% | cell viability [3]: 111% | cell viability [4]: 112% | cell viability [5]: 113% | cell viability [6]: 95.9% | cell viability [7]: 115% | cell viability [8]: 94.3% | cell viability [9]: 95.2% | cell viability [10]: 51.3% | cell viability [11]: 23.9% | cell viability [12]: 114% | cell viability [13]: 119% | cell viability [14]: 126% | cell viability [15]: 120% | cell viability [16]: 125% | cell viability [17]: 116% | cell viability [18]: 115% | cell viability [19]: 98.5% | cell viability [20]: 102% | cell viability [21]: 32.3% | cell viability [22]: 12.6% | cell viability [23]: 102% | cell viability [24]: 107% | cell viability [25]: 107% | cell viability [26]: 106% | cell viability [27]: 103% | cell viability [28]: 107% | cell viability [29]: 114% | cell viability [30]: 102% | cell viability [31]: 95% | cell viability [32]: 50.4% | cell viability [33]: 17%

CN(C)c1ccc2nc3ccc(N(C)C)cc3[s+]c2c1
cell viability [1]: 89.6% | cell viability [2]: 51.3% | cell viability [3]: 99.7% | cell viability [4]: 104% | cell viability [5]: 104% | cell viability [6]: 117% | cell viability [7]: 114% | cell viability [8]: 102% | cell viability [9]: 97% | cell viability [10]: 18.6% | cell viability [11]: 5.42% | cell viability [12]: 82.6% | cell viability [13]: 44.9% | cell viability [14]: 89.8% | cell viability [15]: 97.6% | cell viability [16]: 91.1% | cell viability [17]: 111% | cell viability [18]: 79.7% | cell viability [19]: 85.7% | cell viability [20]: 87.2% | cell viability [21]: 73.7% | cell viability [22]: 6.3% | cell viability [23]: 86.7% | cell viability [24]: 38.2% | cell viability [25]: 80% | cell viability [26]: 89.2% | cell viability [27]: 92.7% | cell viability [28]: 91.2% | cell viability [29]: 90.1% | cell viability [30]: 91.1% | cell viability [31]: 78.7% | cell viability [32]: 46.8% | cell viability [33]: 6.19%

C=C1C(=O)OC(CCCCCCCC)C1C(=O)O (configuration not stated)
cell viability [1]: 97.2% | cell viability [2]: 108% | cell viability [3]: 106% | cell viability [4]: 118% | cell viability [5]: 108% | cell viability [6]: 105% | cell viability [7]: 111% | cell viability [8]: 107% | cell viability [9]: 90.6% | cell viability [10]: 125% | cell viability [11]: 113% | cell viability [12]: 97.5% | cell viability [13]: 99.9% | cell viability [14]: 111% | cell viability [15]: 106% | cell viability [16]: 102% | cell viability [17]: 119% | cell viability [18]: 108% | cell viability [19]: 113% | cell viability [20]: 14.1% | cell viability [21]: 125% | cell viability [22]: 113% | cell viability [23]: 111% | cell viability [24]: 98.2% | cell viability [25]: 111% | cell viability [26]: 126% | cell viability [27]: 120% | cell viability [28]: 128% | cell viability [29]: 125% | cell viability [30]: 117% | cell viability [31]: 84.3% | cell viability [32]: 121% | cell viability [33]: 121%

CCC(C)N1\N=C/N(C1=O)C2=CC=C(C=C2)N3CCN(CC3)C4=CC=C(OC[C@H]5CO[C@@](C[N]6C=NC=N6)(O5)C7=CC=C(Cl)C=C7Cl)C=C4 (some centres not stated)
cell viability [1]: 94.1% | cell viability [2]: 106% | cell viability [3]: 119% | cell viability [4]: 116% | cell viability [5]: 119% | cell viability [6]: 124% | cell viability [7]: 105% | cell viability [8]: 122% | cell viability [9]: 120% | cell viability [10]: 112% | cell viability [11]: 107% | cell viability [23]: 78.4% | cell viability [24]: 116% | cell viability [25]: 115% | cell viability [26]: 116% | cell viability [27]: 113% | cell viability [28]: 98.6% | cell viability [29]: 109% | cell viability [30]: 115% | cell viability [31]: 115% | cell viability [32]: 117% | cell viability [33]: 105%
